Patent US4233217A, “Substituted 1,2,4,5-tetrahydro-3H, 3 benzazepines” (priority 1979, dated 1980)
Counter-ions that a name gives are not always drawn.

Tests used:
[1] = I.P. symptomatology: highest tolerated dose and median lethal dose (Table IV); format: in vivo
[2] = in vivo; conditions: po
[3] = Mouse tail stimulation (MTS) (Table IV); format: in vivo; design: unit not given here; conditions: S.C.
[4] = system: Morphine Analgesia; format: in vivo, rat; conditions: for narcotic antagonist potency relative to pentazocine: compared with pentazocine, Table II
[5] = Analgesic activity summarized over hot plate and writhing methods (Table I); conditions: for analgesic activity, ranking among tested compounds / separation between effective dose and toxic or lethal doses: Table I; for separation between effective dose and toxic or lethal doses: therapeutic index
[6] = Narcotic antagonism (Table IV); format: in vivo; conditions: I.P.
[7] = Local anesthetic sciatic block (Table IV); format: in vivo; conditions: 1%
[8] = Writhing analgesia (Table I); format: in vivo; conditions: oral; vs pentazocine

Compound: Oc1ccc2c(c1)CCN(C[C@H]1C[C@@H]1c1ccccc1)CC2 (relative stereo) [Example 30, 7-Hydroxy-3(trans-2-phenylcyclopropylmethyl)-1,2,4,5-tetrahydro-3H,3-benzazepine]
- LD50 ([1]; in vivo, ip, I.P.): > 1000 mg/kg

Compound: CC1Cc2ccccc2CCN1 (single isomer, unassigned; (+)) [Example 49, (+)-2-Methyl-1,2,4,5-tetrahydro-3H,3-benzazepine hydrochloride]
- LD50 (median lethal dose) ([1]; I.P., hydrochloride): 200 mg/kg

Compound: CC1Cc2ccccc2CCN1 (single isomer, unassigned; (-)) [Example 48, (-)-2-Methyl-1,2,4,5-tetrahydro-3H,3-benzazepine]
- LD50 (median lethal dose) ([1]; I.P.): 60 mg/kg

Compound: CC1Cc2ccccc2CCN1C (single isomer, unassigned; (-)) [Example 54, (-)-2,3-Dimethyl-1,2,4,5-tetrahydro-3H,3-benzazepine hydrochloride]
- LD50 (median lethal dose) ([1]; I.P., hydrochloride): 60 mg/kg

Compound: COc1ccc2c3c1O[C@H]1[C@@H](O)C=C[C@H]4[C@@H](C2)N(C)CC[C@@]341 [Codeine]
- LD50 [2]: 540 mg/kg

Compound: COc1ccc2c(c1)CCNCC2 [Example 1, 7-Methoxy-1,2,4,5-tetrahydro-3H,3-benzazepine]
- MTS (mouse tail stimulation) [3]: > 3

Compound: CC(C)=CCN1CCc2ccc(O)cc2CC1 [Example 4, 3-(3,3-Dimethylallyl)-7-hydroxy-1,2,4,5-tetrahydro-3H,3-benzazepine]
- narcotic antagonist potency relative to pentazocine [4]: more potent antagonist than pentazocine
- MTS (mouse tail stimulation) [3]: > 56

Compound: CC(=O)Oc1ccc2c(c1)CCN(CC=C(C)C)CC2 [Example 5, 7-Acetoxy-3-(3,3-dimethylallyl)-1,2,4,5-tetrahydro-3H,3-benzazepine hydrochloride]
- MTS (mouse tail stimulation) [3]: > 30

Compound: C=CCN1CCc2ccc(OC)cc2CC1 [Example 14, 3-Allyl-7-methoxy-1,2,4,5-tetrahydro-3H,3-benzazepine]
- narcotic antagonist potency relative to pentazocine [4]: about equipotent to pentazocine

Compound: COc1ccc2c(c1)CCN(C)CC2 [Example 18, 7-Methoxy-3-methyl-1,2,4,5-tetrahydro-3H,3-benzazepine]
- oral analgesic activity [5]: active by the oral route

Compound: COc1ccc2c(c1)CCN(CCc1ccccc1)CC2 [Example 24, 7-Methoxy-3-phenethyl-1,2,4,5-tetrahydro-3H,3-benzazepine]
- narcotic antagonist potency relative to pentazocine [4]: about equipotent to pentazocine
- MTD ([1]; in vivo, ip, I.P. symptomatology, read-out: HTD (highest tolerated dose)): 30 mg/kg
- MTS (mouse tail stimulation) [3]: 5
- Narcotic Antagonism [6]: Positive
- analgesic activity, ranking among tested compounds [5]: most active compounds
- separation between effective dose and toxic or lethal doses [5]: greatest separation between effective dose and toxic or lethal doses

Compound: Oc1ccc2c(c1)CCN(CCc1ccccc1)CC2 [Example 25, 7-Hydroxy-3-phenethyl-1,2,4,5-tetrahydro-3H,3-benzazepine]
- HNSD (Highest Non Symptomatic Dose) (IP (Intraperitoneal)): 55 mg/kg

Compound: COc1ccc2c(c1)CCN(CC=Cc1ccccc1)CC2 [Example 28, 7-Methoxy-3-(3-phenylallyl)-1,2,4,5-tetrahydro-3H,3-benzazepine]
- narcotic antagonist potency relative to pentazocine [4]: about equipotent to pentazocine
- MTS (mouse tail stimulation) [3]: 10
- oral analgesic activity [5]: active by the oral route

Compound: COc1ccc2c(c1)CCN(CCN1CCN(c3ccccc3)CC1)CC2 [Example 31, 7-Methoxy-3-[2-(4-phenyl-1-piperazinyl)ethyl]-1,2,4,5-tetrahydro-3H,3-benzazepine]
- MTS (mouse tail stimulation) [3]: 20
- analgesic activity, ranking among tested compounds [5]: most active compounds
- separation between effective dose and toxic or lethal doses [5]: greatest separation between effective dose and toxic or lethal doses

Compound: CC(C)=CCN1CCc2ccc(O)cc2CC1C (stereo not shown) [Example 34, 3-(3,3-Dimethylallyl)-8-hydroxy-2-methyl-1,2,4,5-tetrahydro-3H,3-benzazepine hydrochloride]
- MTS (mouse tail stimulation) [3]: > 40

Compound: COc1ccc2c(c1)CC(C)N(CCc1ccccc1)CC2 (stereo not shown) [Example 36, 8-Methoxy-2-methyl-3-phenethyl-1,2,4,5-tetrahydro-3H,3-benzazepine hydrochloride]
- MTS (mouse tail stimulation) [3]: 10
- Local Anesthetic Sciatic Block [7]: Insoluable

Compound: c1ccc2c(c1)CCN(CC1CC1)CC2 [Example 37, 3-Cyclopropylmethyl-1,2,4,5-tetrahydro-3H,3-benzazepine hydrochloride]
- writhing activity relative to pentazocine [8]: approximately twice as active as pentazocine
- MTS (mouse tail stimulation) [3]: 10
- oral analgesic activity [5]: active by the oral route

Compound: C=CCN1CCc2ccc(OC)cc2CC1C (stereo not shown) [Example 38, 3-Allyl-8-methoxy-2-methyl-1,2,4,5-tetrahydro-3H,3-benzazepine hydrochloride]
- MTS (mouse tail stimulation) [3]: > 10

Compound: CC1Cc2cc(O)ccc2CCN1CC1CC1 (stereo not shown) [Example 41, 3-Cyclopropylmethyl-8-hydroxy-2-methyl-1,2,4,5-tetrahydro-3H,3-benzezepine hydrochloride]
- MTS (mouse tail stimulation) [3]: > 30

Compound: C=CCN1CC[C@]23c4c5ccc(O)c4O[C@H]2[C@@H](O)C=C[C@H]3[C@H]1C5 [Nalorphine, reference compound]
- Antagonism of Morphine Analgesia, times more active than compounds listed above ([4]; rat, in vivo, sc): 20-100

Compound: CC(C)=CCN1CCC2(C)c3cc(O)ccc3CC1C2C (stereo not shown) [Pentazocine, reference compound]
- LDSO (IP): > 500 mg/kg
